Data: patent US20250092030A1, “ENHANCERS OF PARTICULATE GUANYLYL CYCLASE RECEPTOR A” (Mayo Foundation for Medical Education and Research, priority 2023, published 2025)
Values joined by “and” are separate entries in the source; they are usually repeats but may differ in a detail not shown here. Identical values can stand only once.

Molecular target: T1, particulate guanylyl cyclase receptor A (pGC-A) (Homo sapiens, UniProt P16066)
T1 construct: expressed in transfected cells; host or cells: HEK293
T1 sequence (P16066 33-1061): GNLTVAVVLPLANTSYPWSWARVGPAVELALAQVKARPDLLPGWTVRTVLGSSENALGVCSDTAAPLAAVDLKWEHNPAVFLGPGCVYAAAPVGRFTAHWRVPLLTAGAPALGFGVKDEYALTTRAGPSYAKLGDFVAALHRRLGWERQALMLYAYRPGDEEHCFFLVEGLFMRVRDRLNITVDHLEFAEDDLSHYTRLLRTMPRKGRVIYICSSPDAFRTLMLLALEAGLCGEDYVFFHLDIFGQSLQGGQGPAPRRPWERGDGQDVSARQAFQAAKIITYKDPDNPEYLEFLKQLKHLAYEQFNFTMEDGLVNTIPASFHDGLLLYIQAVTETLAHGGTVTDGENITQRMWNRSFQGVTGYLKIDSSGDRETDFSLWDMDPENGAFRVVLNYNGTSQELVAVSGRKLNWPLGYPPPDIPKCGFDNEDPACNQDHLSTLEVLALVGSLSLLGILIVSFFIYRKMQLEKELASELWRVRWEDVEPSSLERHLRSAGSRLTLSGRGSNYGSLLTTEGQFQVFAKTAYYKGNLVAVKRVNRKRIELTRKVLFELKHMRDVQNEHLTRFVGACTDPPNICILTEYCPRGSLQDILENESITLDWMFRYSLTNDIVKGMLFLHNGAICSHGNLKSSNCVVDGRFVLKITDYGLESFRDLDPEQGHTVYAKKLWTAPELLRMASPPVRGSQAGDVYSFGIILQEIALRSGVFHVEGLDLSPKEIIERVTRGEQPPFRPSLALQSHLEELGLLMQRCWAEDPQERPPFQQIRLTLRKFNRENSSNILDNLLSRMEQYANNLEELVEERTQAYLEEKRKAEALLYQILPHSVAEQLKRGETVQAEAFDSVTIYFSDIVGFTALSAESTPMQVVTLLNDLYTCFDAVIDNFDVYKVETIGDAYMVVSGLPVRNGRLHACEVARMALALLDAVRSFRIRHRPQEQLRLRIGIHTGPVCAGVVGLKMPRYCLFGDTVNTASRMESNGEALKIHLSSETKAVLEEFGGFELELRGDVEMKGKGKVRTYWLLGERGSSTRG
T1 sequence (P01160 124-151 partner limits assumed): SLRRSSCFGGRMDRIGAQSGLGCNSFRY
Test: cGMP production by HTRF in HEK293 cells overexpressing pGC-A, with ANP
Type: cell-based
Conditions: for Emax: HEK293, HEK293 cells overexpressing pGC-A, cGMP normalized to maximal amount produced by an EC80 concentration of ANP, read-out: Max efficacy; for EC50: HEK293 cells overexpressing pGC-A, test compound plus EC20 concentration of ANP, cGMP by HTRF
From the text: Assay: Generally, the assay monitors the production of cGMP, the second messenger generated by pGC-A, by Time-Resolved Florescence (HTRF) in HEK293 cells overexpressing the pGC-A. pGC-A suspension cells were stimulated in the presence of the test compound and an EC20 concentration of ANP. The quantity of cGMP was detected by competitive immunoassay using Eu^3+ cryptate-labeled anti-cGMP and d2-labeled cGMP and normalized to maximal amount produced by an EC80 concentration of ANP. Compound EC50 values were determined in the primary assay, in the presence or absence of ANP, to determine mode of action as positive modulators and tested for selectivity in the same assay platform but in HEK cells overexpressing the particulate guanylyl cyclase B receptor (pGC-B), of which CNP is the endogenous ligand.
Assay details: 20 nL of 10 μM test compound in DMSO was added to columns 5-48 of 1536 well white high base screening plates (Corning, New York, NY) cells using 550 ECHO acoustic dispenser (Labcyte, San Jose, CA). Alpha-atrial natriuretic peptide (ANP) (Phoenix Pharmaceutics) was prepared as stock aliquots at 5 μM in PBS with 0.1% BSA. An approximate […] concentration of ANP ([…]) in assay buffer (HBSS containing 5 mM HEPES and 0.05% BSA) was added to columns 3-48 at a volume of 1 μL. Assay buffer only was added to column 1 and assay buffer containing a saturating concentration of ANP (5 nM) was added to column 2. HEK293 cells overexpressing GC-A were resuspended in assay media (OptimMem media containing 2% Heat-inactivated Fetal bovine serum and L-glutamine) at a density of 6×10^5 cells/mL and 2 μL were plated in screening plates (1200 cells/well) in suspension using a Bioraptr 2. Plates were spun at 1000 rpm for 1 min and incubated for 30 min at room temperature. 1.5 μL d2-labeled cGMP followed by 1.5 μL Eu^3+ cryptate-labeled anti-cGMP cGMP detection kit (CiBio; #62GM2PEC) prepared according to manufacturer's protocol were added to all wells using a Bioraptr 2 and TR-FRET signal was detected on an EnVision detector (PerkinElmer). Wells treated with 0.3% DMSO only serve as blank controls (column 1); wells treated with 0.3% DMSO and 5 nM ANP (columns 2) serve as positive controls and wells treated with 0.3% DMSO and […] ANP (columns 3-4) serve as negative controls.

SMILES | Emax [%] | EC50
O=C(Nc1nc2c(F)cc(F)cc2s1)C1CCCN(CCn2cccn2)C1 (centres unmarked) [compound 067] | 88 | 0.7 µM
N[C@@H]1CCCC(C(=O)Nc2nc3c(F)cc(F)cc3s2)C1 (some centres unmarked) [compound 208] | 87 | –
CN(C)CCCN1CCCC(C(=O)Nc2nc3c(F)cc(F)cc3s2)C1 (centres unmarked) [compound 231] | 98 | 0.9 µM
Nc1cc(N2CCCC(C(=O)Nc3nc4c(F)cc(F)cc4s3)C2)ccn1 (centres unmarked) [compound 108] | 88 | 0.6 µM
COc1ccc2nc(NC(=O)C3CCCN(CCN(C)C)C3)sc2c1 (centres unmarked) [compound 018] | – | > 10 µM
CN(C)CCN1CCCC(C(=O)Nc2nc3c(Cc4ccccc4)cccc3s2)C1 (centres unmarked) [compound 004] | – | > 10 µM
N[C@H]1CCCC(C(=O)Nc2nc3c(F)cc(F)cc3s2)C1 (some centres unmarked) [210C] | 92 | –
CN(C)CCN1CCCC(C(=O)Nc2nc3ccc(Cl)cc3s2)C1 (centres unmarked) [compound 016] | 94 | 9.5 µM
Cc1cc(N2CCCC(C(=O)Nc3nc4c(F)cc(F)cc4s3)C2)ccn1 (centres unmarked) [compound 105] | 87 | 0.09 µM
CCOc1cc(F)c2nc(NC(=O)C3CCCN(CCN(C)C)C3)sc2c1 (centres unmarked) [compound 026] | – | > 5 µM
CN(C)CCN1CCOC(C(=O)Nc2nc3c(F)cc(F)cc3s2)C1 (centres unmarked) [compound 046] | – | > 5 µM
CN(C)CCN1CCCC(C(=O)Nc2nc3c(Cl)cc(F)cc3s2)C1 (centres unmarked) [compound 253] | 72 | 0.05 µM
CC1NCC1N1CCCC(C(=O)Nc2nc3c(Cl)cc(F)cc3s2)C1 (centres unmarked) [compound 131] | 81 | 0.13 µM
CN1CCC(CN2CCCC(C(=O)Nc3nc4c(F)cc(F)cc4s3)C2)CC1 (centres unmarked) [compound 075] | 92 | 1.5 µM
COC(=O)CN1CC(N2CCCC(C(=O)Nc3nc4c(Cl)cc(F)cc4s3)C2)C1 (centres unmarked) [compound 139] | 79 | 0.2 µM
COc1ccc2sc(NC(=O)C3CCCN(CCN(C)C)C3)nc2c1 (centres unmarked) [compound 013] | – | > 10 µM
O=C(Nc1nc2c(F)cc(F)cc2[nH]1)C1CCCNC1 (centres unmarked) [249b] | 72 | –

SMILES | Emax [%] | EC50
CNC(=O)N1CCCC(C(=O)Nc2nc3c(F)cc(F)cc3s2)C1 (centres unmarked) [compound 281] | 53 | 1.3 µM
O=C(Nc1nc2c(F)cc(F)cc2s1)C1CNCCO1 (centres unmarked) [compound 047] | – | > 5 µM
O=C(Nc1nc2c(F)cc(F)cc2o1)C1CCCNC1 (centres unmarked) [compound 248] | – | > 5 µM
CN(C)C(=O)N1CCCC(C(=O)Nc2nc3c(F)cc(F)cc3s2)C1 (centres unmarked) [compound 255] | 86 | 0.6 µM
CN(C)CCN1CCCC(C(=O)Nc2nc3cccc(F)c3s2)C1 (centres unmarked) [compound 032] | 85 | 4.3 µM
O=C(Nc1nc2c(F)cc(F)cc2s1)C1CCCN(CCN2CCOC2=O)C1 (centres unmarked) [compound 241] | 93 | 1.6 µM
COc1ccccc1-c1csc(NC(=O)C2CCCN(CCN(C)C)C2)n1 (centres unmarked) [compound 154] | – | > 5 µM
CN(C)CCN1Cc2ccccc2C(C(=O)Nc2nc3c(F)cc(F)cc3s2)C1 (centres unmarked) [compound 059] | – | > 5 µM
CN(C)CCN1CCCC(C(=O)Nc2nc3c(-c4ccccc4)cccc3s2)C1 (centres unmarked) [compound 003] | – | > 10 µM
Cc1cccc(-c2csc(NC(=O)C3CCCN(CCN(C)C)C3)n2)c1 (centres unmarked) [compound 152] | – | > 5 µM
CN(C)c1ccc(N2CCCC(C(=O)Nc3nc4c(F)cc(F)cc4s3)C2)cc1 (centres unmarked) [compound 066] | 77 | 1.9 µM
O=C(Nc1nc2c(F)cc(F)cc2s1)C1CCCN(c2ccncc2Br)C1 (centres unmarked) [compound 113] | – | > 5 µM
CCN(CC)C(=O)N1CCCC(C(=O)Nc2nc3c(F)cc(F)cc3s2)C1 (centres unmarked) [compound 276] | 49 | 1.6 µM and > 5 µM
CN(C)CCN1CCCC(C(=O)Nc2nc3c(F)cc(F)cc3c(=O)[nH]2)C1 (centres unmarked) [compound 182] | – | > 5 µM
COc1cc(N2CCCC(C(=O)Nc3nc4c(F)cc(F)cc4s3)C2)ccn1 (centres unmarked) [compound 107] | 101 | 2.1 µM
O=C(Nc1nc2c(Cl)cc(F)cc2s1)C1CCCN(c2ccnnc2)C1 (centres unmarked) [compound 115] | 56 | 0.1 µM
